# Measurements as given in patent publication US5679321A, “Sialic acid/fucose based medicaments” (Glycomed Incorporated, priority 1995, dated 1997).
# How the values were obtained:
# L-selectin IgG chimera = biological target: T1, L-selectin IgG chimera (Homo sapiens, UniProt P14151); assay: ELISA: blocking of L-selectin IgG chimera binding to 2,3sLex glycolipid
# T1 sequence (P14151 39-332 limits assumed): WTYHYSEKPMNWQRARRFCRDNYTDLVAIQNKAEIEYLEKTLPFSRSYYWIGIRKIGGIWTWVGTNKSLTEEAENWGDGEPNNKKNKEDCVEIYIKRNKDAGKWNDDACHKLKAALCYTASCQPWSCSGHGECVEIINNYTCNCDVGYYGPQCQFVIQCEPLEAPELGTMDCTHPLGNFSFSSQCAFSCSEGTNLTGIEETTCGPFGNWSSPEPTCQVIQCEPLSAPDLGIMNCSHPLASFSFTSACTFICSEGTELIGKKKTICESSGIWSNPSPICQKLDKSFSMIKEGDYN
# Excerpt: (§1) An ELISA assay was employed that uses recombinant fusion proteins composed of extracellular portions of the human selectins joined to human immunoglobulin heavy chain CH3, CH2, and hinge regions. See, for example, Walz et al., Science (1990) 250:1132; Aruffo et al., Cell (1991) 67:35; Aruffo et al., Proc. Natl. Acad. Sci. USA (1992) 89:2292. The assay is well known in the art, and generally consists of the following three steps:
# (§2) I. 2,3sLex glycolipid (25 picomole/well) was transferred into microtiter wells as solutions and then evaporated off. Excess, which remained unattached, was washed off with water. The wells were then blocked with 5% BSA at room temperature for an hour and then washed with PBS containing 1 mM calcium.
# II. […]
# (§3) The positive control is the signal produced by the soluble receptor when it is allowed to react with 2,3sLex glycolipid in the microtiter wells in the absence of any inhibitor. […] The signal produced by the receptor that had been previously treated with an inhibitor (recorded as O.D.), was divided by the signal produced by the positive control and multiplied by 100 to calculate the % receptor bound to the well, or as expressed in the figures, the per cent of control binding. […]
# [1] = test system: neutrophil migration to the peritoneal cavity; assay: murine thioglycollate induced peritonitis model; type: in vivo, female Swiss Webster mice; conditions: FIG. 7; for inhibition of neutrophil migration into the peritoneum: compound in PBS by tail vein, thioglycollate intraperitoneally, cells counted after three hours
# Excerpt: The efficaciousness of GM 1221, and GM 1398 was shown using a murine thioglycollate induced peritonitis model. The assay materials and methods are known in the art, or are generally described by Lewinsohn, D. et al., J. Immun., 138:4313-4321 (1987), or Watson, S. et.al., Nature 349:164-166 (1991).
# This assay measures the abili:ty of the compounds to inhibit neutrophil migation to the peritoneal cavity, the migration being initiated by the presence of thioglycollate in the peritoneal cavity. Thioglycollate is a known and effective inflammatory agent that causes neutrophil migration into the mouse peritoneum when it is administered intraperitoneally. Lewinsohn, D. et al., J. Immun. (1987) 138:4313-4321.
# Briefly, female Swiss Webster mice weighing about 25 grams were injected in the tail vein with 200 ul of phosphate buffered saline (PBS) with or without the appropriate compound. The pH of the solutions was adjusted to neutrality by the addition of either NaOH or HCL and sterilized by filtration through a 0.2 u filter.
# Immediately following injection with the appropriate compound or PBS, the mice were injected intraperitoneally with 1 ml of thioglycollate medium prepared as described by the manufacturer, BBL. Three hours following injection of the thioglycollate solution the mice were sacrificed by CO2 asphyxiation, and the number of cells in the peritoneum removed by lavage with 5 ml of heparinized (5U/ml) 0.9%. sodium chloride solution containing 0.1% bovine serum albumin. Cell number was determined using a Coulter Counter. The cells were prepared for counting by diluting the lavage fluid with 1:50 of a commercial physiological isotonic solution, Isoton II, and the cells lysed by adding S/P Lysing and Hemoglobin Reagent (1:100 final dilution). Cell nuclei were counted in a sized window with lower and upper limits set at 3.9 and 5.7 um, respectively.
# E-selectin IgG chimera = assay: ELISA: blocking of E-selectin IgG chimera binding to 2,3sLex glycolipid; parameters: species or system human; conditions: FIG. 4; several concentrations
# Excerpt: as §1, §2
# II. […]
# as §3
Structure (SMILES),"inhibitory activity on L-selectin binding at all four concentrations tested (L-selectin IgG chimera; FIG. 6, all four concentrations of the compound tested)",inhibition of neutrophil migration into the peritoneum [1],"inhibition of L-selectin binding to 2,3sLex glycolipid (per cent of control binding) (L-selectin IgG chimera; FIG. 5 and FIG. 6, several concentrations)","inhibition of E-selectin binding to 2,3sLex glycolipid (per cent of control binding) (E-selectin IgG chimera)",more neutrophil migration inhibited than GM 1221 ([1]; relative to GM 1221)
CC(OCCCCCCOC1O[C@@H](C)[C@@H](O)[C@@H](O)[C@@H]1O)C(=O)O (stereo partly drawn) [GM 1221],significant inhibitory activity,inhibit neutrophil migration into the peritoneum,–,–,–
"CC(=O)NC1C(O)CC(OCCCCCCOC2OC(C)C(O)C(O)C2O)(C(=O)O)OC1C(O)C(O)CO [GM 1398, 1-O-α-Neu5Ac-(6-O-α-L-Fucopyranosyl)-Hexane]",–,inhibit neutrophil migration into the peritoneum,inhibit L-selectin binding in a concentration dependent manner,inhibit E-selectin binding,about 30%
